Values after ≈ are worked out from the molar mass of the structure shown. Where two headings read alike, the source gives them in different places. No end group written: not given here.

Data set [1] deals with Aspergillus niger (ATCC 9142). Kind of data set: microbe, parasite or virus in culture. Format: cell-based. On the procedure: (§1) The human skin fibroblast (Hu02 cell) and human breast cancer cells (MDA-MB-231 and SKBR-3 cell lines) were purchased from the National Cell Bank of Iran, Pasture Institute of Ira) for cytotoxicity test. Antimicrobial effects of the Ac-AurH1, AurH1-NH2, and AurH1 against the selected bacteria and fungi were conducted using a standard serial dilution method in a 96-well microplate. For this purpose, the desired fungal and bacterial strains were grown overnight at 37 °C (Some of the fungi were incubated at 25 °C) in related media (SDA for fungi and MHA for bacteria). […] Next, serially diluted synthetic peptides in a volume of 100 μL were added to the microtitre plates, followed by 100 μL of bacteria and fungi to give a final inoculum of 5 × 10^5 colony-forming units (CFU)/ml (a 0.5 McFarland standard inoculum). […] In this test, penicillin and streptomycin antibiotics for bacteria and fluconazole, nystatin, and amphotericin B for fungal strains were used as antibiotic control. […] All tests were repeated three times independently.

Data set [2] deals with Aspergillus flavus (ATCC 24,109). Kind of data set: microbe, parasite or virus in culture. The data set is classed as cell-based. Here is the method:
as §1

Data set [3] has as its system Candida albicans (ATCC 10,231). Nature of the data set: microbe, parasite or virus in culture. Format: cell-based. Here is the method: as §1
For data set [4], the system named is Candida glabrata (ATCC 90,030). Nature of the data set: microbe, parasite or virus in culture. Format: cell-based. On the procedure: as §1
For data set [5], the system named is Candida krusei (ATCC 28,870). Nature of the data set: microbe, parasite or virus in culture. The data set is classed as cell-based. Here is the method:
as §1

Another data set relates to C. albicans. Nature of the data set: Killing kinetic assay (time of killing). The data set is classed as cell-based, Candida albicans. To be noted: 1X MIC concentration.
The subject of data set [6] is Escherichia coli (ATCC 25,922). Kind of data set: microbe, parasite or virus in culture. The data set is classed as cell-based. Here is the method:
as §1

Data set [7] concerns Staphylococcus aureus (ATCC 25,923). Kind of data set: microbe, parasite or virus in culture. The data set is classed as cell-based. On the procedure: as §1
The subject of a further data set is human red blood cells. The data set is classed as cell-based. To be noted: 1 h. On the procedure: A hemolytic assay was performed to investigate the effects of peptides on human red blood cells. First, 5 ml of fresh human blood was taken from a volunteer. After that, 20% (v/v) suspension of human erythrocytes was prepared and diluted in PBS (1:20). Next, 100 µL of this blood suspension was added in triplicate to 100 µL of a 2-fold serial dilution series of the peptide in a 96‐well plate. 1% Triton-X 100 was used as a positive control to lyse 100% of RBCs, and sterile 0.9% NaCl solution was used as a negative control. Then the plates were incubated at 37 °C for 1 h and centrifuged at 3500 rpm for 10 min. Next, 100 µL of the supernatant was transferred to a new 96-well plate to measure the absorbance at 414 nm using a microplate reader (STAT FAX 2100, BioTek, Winooski, USA). Finally, the percentage of hemolysis was calculated as follows: […]

Data set [8] relates to Human skin fibroblast (Hu02 cells). The data set is classed as cell-based. Here is the method: Toxicity of peptides on Human skin fibroblast (Hu02 cells) and two human breast cancer cell lines (MDA-MB-231 and SKBR3 cell lines) measured by an MTT assay. At first, cell lines with a density of 1 × 10^5 cells were cultured in the wells of 96-well plates for 24 h under standard conditions (37 °C temperature, 5% CO2 atmosphere with 95% relative humidity). After that, the old medium was replaced with fresh medium (with 10% FBS) containing different peptide concentrations, and the cells were incubated for 24 h. A medium without peptide was used as a negative control. After 24 h of incubation and washing the wells with PBS, the medium (containing 10% FBS) was replaced with fresh medium containing 10% MTT solution (freshly prepared 5 mg/ml MTT in PBS), and the plate was incubated for four h in 5% CO2, at 37 °C. Next, the medium was removed from the wells, and 100 µL DMSO was added. Afterward, the plate was shaken to dissolve Formazan crystals. Finally, by a microplate reader (STAT FAX 2100, BioTek, Winooski, USA), the absorbance values were measured at a wavelength of 595 nm. The percentage of toxicity was calculated as follows: […]

Setting [9] is: A. niger, mean of 3 independent tests.
Setting [10] is: A. flavus, mean of 3 independent tests.
Where [11] appears, read: C. albicans, mean of 3 independent tests.
[12] abbreviates: C. glabrata, mean of 3 independent tests.
[13] abbreviates: C. krusei, mean of 3 independent tests.

For `C[C@@H]1[C@H](O)[C@@H](C)/C=C/C=C/CC/C=C/C=C/C=C/C=C/C(O[C@H]2O[C@H](C)[C@@H](O)[C@H](N)[C@@H]2O)CC2O[C@](O)(CC(O)C(O)CCC(O)CC(O)CC(O)CC(=O)O[C@H]1C)CC(O)C2C(=O)O` (stereo partly drawn) [Nys, Nystatin, reference compound], the “MBC (MFC)” value came to 125 µg/mL (≈ 135 µM) in data set [1] (setting [9]); 62.50 µg/mL (≈ 67.5 µM) in data set [2] (setting [10]); 3.90 µg/mL (≈ 4.21 µM) in data set [3] (setting [11]); 3.9 µg/mL (≈ 4.21 µM) in [4] (setting [12]); 3.90 µg/mL (≈ 4.21 µM) in [5] (setting [13]). The MIC in data set [1] (setting [9]) is 31.25 µg/mL (≈ 33.7 µM); in data set [2] (setting [10]), 7.81 µg/mL (≈ 8.43 µM); in data set [3] (setting [11]), 1.95 µg/mL (≈ 2.11 µM); in data set [4] (setting [12]), 3.9 µg/mL (≈ 4.21 µM); in data set [5] (setting [13]), 1.95 µg/mL (≈ 2.11 µM). Besides, the “time to kill all C. albicans (maximum fungicidal effect)” value in the data set with C. albicans came out at 8 h.
Consider Penicillin [reference compound], for which the MIC is 31.25/NA µg/mL in [6] (E. coli, mean of 3 independent tests) and 0.45/NA µg/mL in [7] (S. aureus, mean of 3 independent tests).
For `[H]/N=C(/N)N[C@H]1[C@H](O)[C@@H](O)[C@H](O[C@@H]2O[C@@H](C)[C@](O)(C=O)[C@H]2O[C@@H]2O[C@@H](CO)[C@H](O)[C@@H](O)[C@@H]2NC)[C@@H](N/C(N)=N\[H])[C@@H]1O` [Strep, Streptomycin, reference compound], the MIC in data set [6] (Escherichia coli, ATCC25, E. coli, mean of 3 independent tests, read-out: MIC) came to 3.9 µg/mL (≈ 6.71 µM); in data set [7] (Staphylococcus aureus, ATCC25, S. aureus, mean of 3 independent tests, read-out: MIC) it was 62.5 µg/mL (≈ 107 µM).
Take Ac-WFKIIKK [Ac-AurH1, Ac-WFKIIKK]: the “HC50 (concentration that lyses 50% of red blood cells)” value in the data set on human red blood cells is recorded as 10,127 µg/ml. Moreover, the MIC is recorded as more than 1000 µg/mL in data set [6] (ATCC 25, 24 h); more than 1000 µg/mL in data set [1] (ATCC 9142, 24 h); more than 1000 µg/mL in [2] (ATCC 24, 24 h); 250 µg/mL in [3] (ATCC 10, 24 h); more than 1000 µg/mL in data set [4] (ATCC 90, 24 h); 500 µg/mL in data set [5] (ATCC 28, 24 h). The same molecule had an MIC in data set [7] (ATCC 25, 24 h) of more than 1000 µg/mL. In addition, the “MBC (MFC)” value in data set [3] (ATCC 10, 24 h) was more than 1000 µg/mL; in [5] (ATCC 28, 24 h) it was more than 1000 µg/mL. For the same molecule, the toxicity entry in data set [8] was “more than 10%”.
For `OC(Cn1cncn1)(Cn1cncn1)c1ccc(F)cc1F` [Flu, Fluconazole, reference compound], the MBC is more than 1000 µg/mL in [1] (Aspergillus niger, ATCC9142, A. niger, mean of 3 independent tests); 500 µg/mL (≈ 1630 µM) in data set [3] (Candida albicans, ATCC10, C. albicans, mean of 3 independent tests); 500 µg/mL (≈ 1630 µM) in [4] (Nakaseomyces glabratus, ATCC90, C. glabrata, mean of 3 independent tests); 250 µg/mL (≈ 816 µM) in [5] (Pichia kudriavzevii, ATCC28, C. krusei, mean of 3 independent tests). Also, the MIC in data set [1] (Aspergillus niger, ATCC9142, A. niger, mean of 3 independent tests, read-out: MIC) is 500 µg/mL (≈ 1630 µM); in data set [2] (Aspergillus flavus, ATCC24, A. flavus, mean of 3 independent tests, read-out: MIC) it was more than 1000 µg/mL; in [3] (Candida albicans, ATCC10, C. albicans, mean of 3 independent tests, read-out: MIC) it was 62.5 µg/mL (≈ 204 µM); in data set [4] (Nakaseomyces glabratus, ATCC90, C. glabrata, mean of 3 independent tests, read-out: MIC) it was 125 µg/mL (≈ 408 µM); in data set [5] (Pichia kudriavzevii, ATCC28, C. krusei, mean of 3 independent tests, read-out: MIC), 62.5 µg/mL (≈ 204 µM). The “time to kill all C. albicans (maximum fungicidal effect)” value in the data set with C. albicans is listed as “could not eliminate C. albicans after 24 h”.

The values above are taken from article PMC10633902, “Investigating the antimicrobial activity, cytotoxicity, and action mechanism of acylated and amidated derivatives of AurH1 antifungal peptide” (BMC Microbiology, 2023).
